Usually EC50 stands for the concentration needed to bring the measured effect to its halfway point. One may read the IC50 as the concentration at which inhibition is half-maximal.

The target of assay [1] is T1, pDNA-PK ser2056 induction in HCT116 spheroids (Homo sapiens, UniProt P78527).
T1 construct: endogenous in cells; host or cells: HCT116 multicellular tumour spheroids
The experiment in a line: Multicellular tumour spheroid + radiation, pDNA-PK inhibition, HCT116. The format is cell-based. Conditions: 20 Gy. As to the method:
Multicellular tumour spheroids determination of compound inhibition of pDNA-PK induction following radiation. Tumour spheroids were grown to approximately 0.5 mm in diameter and irradiated with 20 Gy in combination with inhibitor test compounds to determine their potency. Inhibitor concentration for 50% reduction in pDNA-PK induction (IC50) was determined via immunohistochemical staining in spheroid cryosections taken 2 hours following radiation.
Spheroid, Cell Line: […], Immunohistochemical endpoint, pDNA-PK inhibition, EC50 in μm.
Spheroid+radiation pDNA-PK. Radiation: 20 Gy. Drug: serial dilution 5 or 10 μM down to 3.5 nM (11 wells). Spheroids: 3-6 spheroids per well (300-500 μm diameter). 20% O2 and 5% CO2. 96 well plate format.
Protocol: pre-incubate 1 hours with drug, irradiate with 20 Gy, post-incubate 2 hours with drug, freeze and cryosection ×3 replicates.
Endpoint: fluorescent immunostin pDNA-PK ser2056 and image on microscope.
Analysis: determine EC50 concentration that decreases pDNA-PK induction by 50% after radiation.
Multicellular tumour spheroids determination of compound inhibition of pDNA-PK induction following radiation. Tumour spheroids were grown to approximately 0.5 mm in diameter and irradiated with 20 Gy in combination with inhibitor test compounds to determine their potency. Inhibitor concentration for 50% reduction in pDNA-PK induction (IC50) was determined via immunohistochemical staining in spheroid cryosections taken 2 hours following radiation. For cell survival endpoint 8 Gy radiation was used and 3 hours following radiation spheroids were dissociated, counted and plated for colony forming endpoint.
Spheroid+radiation pDNA-PK. Radiation: 20 Gy. Drug: serial dilution 5 or 10 μM down to 3.5 nM (11 wells). Spheroids: 3-6 spheroids per well (300-500 μm diameter). 20% O2 and 5% CO2. 96 well plate format. Endpoint: fluorescent immunostain pDNA-PK ser2056 and image on microscope. Analysis: determine EC50 concentrations that decreases pDNA-PK induction […] after irradiation.
Multicellular tumour spheroids were used to determine potency of test compounds in a 3D tissue environment using inhibition of pDNA-PK induction following radiation or cell survival as the endpoint. For the pDNA-PK endpoint HCT116 or FaDU tumour spheroids were grown to approximately 0.5 mm in diameter and irradiated with 20 Gy in combination with inhibitor test compounds to determine their potency. Experiments were carried out in 96 well plates containing 0.7 mls of MEM media containing 10% FBS and 10 mM glucose under 20% O2 & 5% CO2 at 37° C. Following dilution of compounds 1:1000 from DMSO stocks, compounds were serially diluted from 10 μM down to 3.5 nM and 5-10 spheroids added. 96 well plates were constantly stirred to avoid spheroids settling during the course of the experiment. The inhibitor concentration for 50% reduction in pDNA-PK induction (EC50) was determined via immunohistochemical staining in spheroid cryosections taken 2 hours following radiation using anti-pDNA-PK (ser 2056) and fixed immediately in formalin following sectioning. For cell survival endpoint 8 Gy radiation was used and, 3 hours following radiation, spheroids were dissociated, counted and plated for colony forming endpoint. Data presented in the table compound potency as EC50 [μM].

For assay [2], the target named is T2, DNA-PK phosphorylation at Serine 2056 (Homo sapiens, UniProt P78527).
T2 construct: host or cells: FaDu
The experiment in a line: Cellular Assay for Inhibition of DNA-PK Phosphorylation at Serine 2056 (FaDu cells, neocarzinostatin, sandwich ELISA). Conditions: Table 1. The format is cell-based. Put shortly: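 Readout was pSer2056 and total DNA-PK, measured by sandwich ELISA on protein-normalized lysates. Prior to lysis, compound was applied to FaDu cells for 1 h (0.3% DMSO), followed by 2 h of 1 μg/mL neocarzinostatin. IC50 values were fitted from log concentration versus % inhibition normalized to DMSO and NCS controls.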
On the technique in general: In an ELISA, binding on a coated surface is turned into a signal by an enzyme label.

In a further assay the target is T3, DNA-PK (Homo sapiens, UniProt P78527).
T3 construct: purchased Invitrogen PR9107A
The experiment in a line: DNA-PK Assay for Biochemical Enzymatic Inhibition (ADP Glo Kinase assay). Conditions: Table 1. As to the method: A biochemical assay was performed to identify IC50 values against DNA-PK activity in a two-step reaction with a kinase reaction followed by ADP Glo™ Kinase assay Kit (Promega V9102).
Three-fold serial dilutions of compounds in DMSO were prepared in kinase assay buffer (50 mM HEPES pH 7.5, 20 mM MgCl2, 100 mM KCl, 50 μM DTT, 10 μg/ml calf thymus DNA, 0.01% Tween 20). Kinase assay buffer was used to prepare compound treatments to 0.02% DMSO (dimethyl sulphoxide) content. DMSO controls were prepared to produce a maximum and minimum luminescence signal for normalization. Substrate (Anaspec, AS-60210-5) and ATP (Promega V9102) and ATP mix was prepared by dilution in kinase assay buffer for 434.4 μM and 64.4 μM final assay concentrations, respectively. Compounds and control were added to 25 ng DNA-PK enzyme (Invitrogen, PR9107A) diluted in kinase buffer in assay plate (Corning 267459) and incubated for 15 minutes at room temperature prior to addition of substrate and ATP mix.
Throughout the assay, each time a reagent was added to the microplate, it was centrifuged for 1 minute at 1300 rcf. All reagents were added, and incubations carried out at room temperature. The reaction was then incubated for 60 minutes. ADP-ATP standards at 0, 4, 10, 40, 80, and 100% ADP (prepared as specified in the ADP Glo™ Kinase assay kit) were also added to the microplate at a volume equal to the total kinase reaction. The ADP Glo™ Kinase Assay kit was then used to quantify DNA-PK activity: following the 60-minute incubation, a 1:1 volume of ADP Glo reagent was added to all wells, then following a further 45-minute incubation, a 1:1 volume of Kinase Detection Reagent was added to all wells. After this two-step assay, plates were incubated in a Synergy-Neo2 plate reader for 30 minutes with gentle shaking, followed by endpoint luminescent read Luminescence data was normalized by subtracting the background signal and expressing all background-adjusted values as a percentage of the average maximum signal. The data was then expressed as percent inhibition by subtracting from 100% (i.e. maximum luminescent signal will be 0% inhibition) and the resulting data plotted against ten concentration points on a logarithmic scale, using GraphPad Prism. Non-linear regression analysis was performed on each concentration response curve and the log [inhibitor] vs response—variable slope (four parameters) equation was selected to generate IC50 values.
On the technique in general: ADP-Glo turns the ADP formed in a reaction into a luminescent signal.

The mark [3] stands for this setting: Example 7, spheroid, cell line HCT115 [sic], 20% O2, read-out: EC50 (pDNA-PK inhibition, immunohistochemical endpoint).
[4] abbreviates: Example 9 Study 2, 20% O2, read-out: Spheroid Cell line: HCT116 Immunohistochemical endpoint pDNA-PK inhibition EC50.
Where [5] appears, read: Example 8, spheroid, read-out: Cell line: HCT116 Immunohistochemical endpoint pDNA-PK inhibition EC50.

The structures appear in SMILES notation. Read-outs that look alike come from different tables or passages of the source.

`CN(C)c1ccnc(N[C@H]2CC[C@@H](Oc3nc(N4CCOCC4)cc4ncccc34)CC2)n1` [Compound 50, N4,N4-dimethyl-N2-((1s,4s)-4-((7-morpholino-1,6-naphthyridin-5-yl)oxy)cyclohexyl)pyrimidine-2,4-diamine]: the concentration giving a half-maximal response (EC50) in assay [1] (setting [3]) and in assay [1] (setting [4]) was 1 to 10 µM each time. The figures for the IC50 (in assay [2]; on DNA-PK) were 0.1 to 1 µM and 0.0005 to 0.001 µM, respectively.

In the case of `O=C(O)c1cnc(N[C@H]2CC[C@@H](Oc3nc(N4CCOCC4)cc4ncccc34)CC2)nc1` [Compound 51, 2-(((1s,4s)-4-((7-morpholino-1,6-naphthyridin-5-yl)oxy)cyclohexyl)amino)pyrimidine-5-carboxylic acid], the EC50 in assay [1] (setting [3]) and in assay [1] (setting [4]) was 0.5 to 1 µM each time. Moreover, the half-maximal inhibitory concentration (IC50) is 1 to 10 µM in assay [2] and < 0.0005 µM at DNA-PK.

Turning to `Clc1nc(N[C@H]2CC[C@@H](Oc3nc(N4CCOCC4)cc4ncccc34)CC2)c2occc2n1` [Compound 80b, 2-chloro-N-((1s,4s)-4-((7-morpholino-1,6-naphthyridin-5-yl)oxy)cyclohexyl)furo[3,2-d]pyrimidin-4-amine], the EC50 in assay [1] (setting [3]) and in assay [1] (setting [4]) was 1 to 10 µM each time. Moreover, the results for the half-maximal inhibitory concentration (IC50) (in assay [2]; on DNA-PK) were 0.1 to 1 µM and < 0.0005 µM, respectively.

Consider `c1cnc2cc(N3CCOCC3)nc(O[C@H]3CC[C@@H](Nc4ccc5nccn5n4)CC3)c2c1` [Compound 90, N-((1s,4s)-4-((7-Morpholino-1,6-naphthyridin-5-yl)oxy)cyclohexyl)imidazo[1,2-b]pyridazin-6-amine], for which the EC50 in assay [1] (setting [3]) and in assay [1] (setting [4]) was 1 to 10 µM each time. Further, the results for the IC50 (in assay [2]; on DNA-PK) were 0.1 to 1 µM and 0.0005 to 0.001 µM, respectively.

For `Cc1cc2ncnn2cc1N[C@H]1CC[C@@H](Oc2nc(N3CCOCC3)cc3ncccc23)CC1` [Compound 91, 7-Methyl-N-((1s,4s)-4-((7-morpholino-1,6-naphthyridin-5-yl)oxy)cyclohexyl)-[1,2,4]triazolo[1,5-a]pyridin-6-amine], the EC50 in assay [1] (setting [3]) and in assay [1] (setting [4]) was 10 to 100 µM throughout. Further, the IC50 in assay [2] was 1 to 10 µM; on DNA-PK, 0.001 to 0.01 µM.

Consider `c1cnc2cc(N3CCOCC3)nc(O[C@H]3CC[C@@H](Nc4ccc5ncnn5c4)CC3)c2c1` [Compound 92, N-((1s,4s)-4-((7-Morpholino-1,6-naphthyridin-5-yl)oxy)cyclohexyl)-[1,2,4]triazolo[1,5-a]pyridin-6-amine], for which the EC50 in assay [1] (setting [3]) and in assay [1] (setting [4]) was 1 to 10 µM each time. In addition, the IC50 lay in the range of 0.1 to 1 µM in assay [2] and 0.001 to 0.01 µM at DNA-PK.

Regarding `CCCC(=O)N[C@H]1CC[C@@H](Oc2nc(N3CCOCC3)cc3ncccc23)CC1` [Compound 103, N-((1s,4s)-4-((7-Morpholino-1,6-naphthyridin-5-yl)oxy)cyclohexyl)butyramide], the EC50 in assay [1] (setting [3]), in assay [1] (setting [5]) and in assay [1] (setting [4]) was 10 to 100 µM throughout. Also, the IC50 in assay [2] is 0.1 to 1 µM; on DNA-PK, 0.001 to 0.01 µM.

For `O=C(N[C@H]1CC[C@@H](Oc2nc(N3CCOCC3)cc3ncccc23)CC1)c1ccccc1` [Compound 110, N-((1s,4s)-4-((7-Morpholino-1,6-naphthyridin-5-yl)oxy)cyclohexyl)benzamide], the half-maximal effective concentration (EC50) in assay [1] (setting [3]), in assay [1] (setting [5]) and in assay [1] (setting [4]) was 1 to 10 µM in each case. Besides, the values for the IC50 (in assay [2]; on DNA-PK) were < 0.1 µM and < 0.0005 µM, respectively.

Regarding `O=C(N[C@H]1CC[C@@H](Oc2nc(N3CCOCC3)cc3ncccc23)CC1)C1CCCO1` (stereo partly shown) [Compound 134, N-((1s,4s)-4-((7-Morpholino-1,6-naphthyridin-5-yl)oxy)cyclohexyl)tetrahydrofuran-2-carboxamide], the EC50 in assay [1] (setting [3]), in assay [1] (setting [5]) and in assay [1] (setting [4]) was 10 to 100 µM each time. Moreover, the IC50 in assay [2] was in the range of 1 to 10 µM; on DNA-PK, 0.001 to 0.01 µM.

Consider `O=C(N[C@H]1CC[C@@H](Oc2nc(N3CCOCC3)cc3ncc(Br)cc23)CC1)c1ncccn1` [Compound 176, N-((1s,4s)-4-((3-bromo-7-morpholino-1,6-naphthyridin-5-yl)oxy)cyclohexyl)pyrimidine-2-carboxamide], for which the EC50 in assay [1] (setting [3]) and in assay [1] (setting [4]) was 1 to 10 µM each time. Further, the results for the IC50 (in assay [2]; at DNA-PK) were 0.1 to 1 µM and 0.0005 to 0.001 µM, respectively.

Consider `CC(C)S(=O)(=O)Nc1cnc2cc(N3CCOCC3)nc(O[C@H]3CC[C@@H](Nc4ncccn4)CC3)c2c1` [Compound 187, N-(7-morpholino-5-(((1s,4s)-4-(pyrimidin-2-ylamino)cyclohexyl)oxy)-1,6-naphthyridin-3-yl)propane-2-sulfonamide], for which the EC50 in assay [1] (setting [3]) and in assay [1] (setting [4]) was 10 to 100 µM in each case. Further, the concentration for half-maximal inhibition (IC50) lay in the range of 1 to 10 µM in assay [2] and 0.001 to 0.01 µM on DNA-PK.

For `CCS(=O)(=O)Nc1cnc2cc(N3CCOCC3)nc(O[C@H]3CC[C@@H](Nc4ncccn4)CC3)c2c1` [Compound 188, N-(7-morpholino-5-(((1s,4s)-4-(pyrimidin-2-ylamino)cyclohexyl)oxy)-1,6-naphthyridin-3-yl)ethanesulfonamide], the EC50 in assay [1] (setting [3]) and in assay [1] (setting [4]) was 1 to 10 µM throughout. Moreover, the values for the IC50 (in assay [2]; on DNA-PK) were 0.1 to 1 µM and < 0.0005 µM, respectively.

Take `CCCS(=O)(=O)Nc1cnc2cc(N3CCOCC3)nc(O[C@H]3CC[C@@H](Nc4ncccn4)CC3)c2c1` [Compound 189, N-(7-morpholino-5-(((1s,4s)-4-(pyrimidin-2-ylamino)cyclohexyl)oxy)-1,6-naphthyridin-3-yl)propane-1-sulfonamide]: the EC50 in assay [1] (setting [3]) and in assay [1] (setting [4]) was 10 to 100 µM in each case. The IC50 was in the range of 1 to 10 µM in assay [2] and 0.001 to 0.01 µM at DNA-PK.

For the origin of these results see patent US20240246960A1 (adMare Therapeutics Society, priority 2021, published 2024).
